Test results as given in PMC8617031, “Development of a BCL-xL and BCL-2 dual degrader with improved anti-leukemic activity,” (Nature Communications, 2021).
Several values for one entry are separate records, joined by “and”; a condition that tells them apart may be missing. Identical values can stand only once.

Experiments:
[1] = target: T1, BCL-2/PROTAC/VCB ternary complex (Homo sapiens, UniProt P10415+P40337); experiment: AlphaLISA ternary complex formation, cell-free, BCL-2; format: binding; conditions: for in vitro ternary complex formation with BCL-2 (in words): AlphaLISA, cell-free, Fig. 2d, 3f; for AlphaLISA signal, BCL-2/PROTAC/VCB: Fig. 2d raw Alpha reads; for Alpha (Alpha Endpoint read, Bcl-2 ternary complex formation): raw plate signal, duplicate wells
T1 construct: pGEX-6P-1-VHL(54-213) (pDL2200) was constructed through Gibson assembly method; made in house; host or cells: bacterial culture (LB broth, IPTG induction)
T1 sequence (P10415 1-211 limits assumed): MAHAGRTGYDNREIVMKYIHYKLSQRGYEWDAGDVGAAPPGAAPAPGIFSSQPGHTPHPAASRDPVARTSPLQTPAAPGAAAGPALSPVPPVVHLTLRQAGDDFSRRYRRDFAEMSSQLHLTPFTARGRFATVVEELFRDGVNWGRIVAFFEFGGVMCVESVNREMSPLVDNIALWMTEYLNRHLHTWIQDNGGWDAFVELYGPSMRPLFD
T1 sequence (P40337 54-213 limits assumed): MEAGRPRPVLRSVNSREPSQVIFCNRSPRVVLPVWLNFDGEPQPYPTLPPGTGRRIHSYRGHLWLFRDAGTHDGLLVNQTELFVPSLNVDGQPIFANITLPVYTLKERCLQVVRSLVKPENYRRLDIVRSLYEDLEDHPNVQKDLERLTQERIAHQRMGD
T1 sequence (Q15369 17-112 partner limits assumed): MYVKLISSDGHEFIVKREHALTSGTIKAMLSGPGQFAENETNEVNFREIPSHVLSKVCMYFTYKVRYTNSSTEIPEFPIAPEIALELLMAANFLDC
T1 sequence (Q15370 whole entry partner): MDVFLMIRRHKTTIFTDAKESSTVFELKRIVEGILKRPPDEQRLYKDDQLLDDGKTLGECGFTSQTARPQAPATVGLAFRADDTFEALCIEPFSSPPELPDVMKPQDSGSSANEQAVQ
Method: AlphaLISA assay was used to evaluate the in vitro ternary complex formation between target proteins (BCL-xL or BCL-2), PROTAC and E3 ligase (VCB complex). In each well, 5 nM His-tagged BCL-xL or BCL-2 proteins and 5 nM GST-VCB complex was incubated with varying concentrations of compounds in fourfold serial dilutions, to a final volume of 40 µl in a 96-well PCR plate. After incubation at room temperature for 30 min, 5 µl alpha glutathione-donor beads (Cat. No. 6765300, PerkinElmer) were added to each well (20 µg/ml final concentration) and incubated for another 15 min. Thereafter, 5 µL 6× His-acceptor beads were added to each well (20 µg/ml final concentration) and incubated for an additional 45 min at room temperature. Thereafter, 17 µl of each sample was transferred in adjacent wells of a 384-well proxy plate, and the plate was scanned using the Alpha program on Biotek’s Synergy Neo2 multimode plate reader. The data were expressed as average AlphaLISA signal and plotted against different concentrations of compounds using GraphPad Prism 9 software.

BCL-2 = target: T2, BCL-2 (Homo sapiens, UniProt P10415); experiment: BCL-2 degradation by immunoblot in 293T cells; format: cell-based; conditions: for BCL-2 degradation (in words) / DC50: 293T cells, 16 h; for DC50: four concentrations, Fig. 2b, read-out: BCL-2 DC50; for Dmax: HEK-293T
T2 construct: endogenous in cells
T2 sequence (P10415 whole entry): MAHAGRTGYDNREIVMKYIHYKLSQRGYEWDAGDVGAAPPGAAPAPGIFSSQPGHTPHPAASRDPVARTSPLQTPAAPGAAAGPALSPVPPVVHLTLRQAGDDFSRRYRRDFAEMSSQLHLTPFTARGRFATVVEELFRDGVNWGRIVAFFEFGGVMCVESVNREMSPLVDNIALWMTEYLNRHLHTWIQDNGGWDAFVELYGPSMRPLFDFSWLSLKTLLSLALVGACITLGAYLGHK
Summary of the method: (§1)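 DC50 and Dmax come from densitometry of western blots of treated 293T cells, normalized to β-actin, mean of 3 independent experiments. Lysates in RIPA, 20–40 μg loaded per lane, HRP chemiluminescence read-out.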

BCL-xL = target: T3, BCL-xL (Homo sapiens, UniProt Q07817); experiment: BCL-xL degradation by immunoblot in 293T cells; format: cell-based; conditions: for DC50: four concentrations, Fig. 2b, read-out: BCL-xL DC50; for Dmax: HEK-293T
T3 construct: endogenous in cells
T3 sequence (Q07817 whole entry): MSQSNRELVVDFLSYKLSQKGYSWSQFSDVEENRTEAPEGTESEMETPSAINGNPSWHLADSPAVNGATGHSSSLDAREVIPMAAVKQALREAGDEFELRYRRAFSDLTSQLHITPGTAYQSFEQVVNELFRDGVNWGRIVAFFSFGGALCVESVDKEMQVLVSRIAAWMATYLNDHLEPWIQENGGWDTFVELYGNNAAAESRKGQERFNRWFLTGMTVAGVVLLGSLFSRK
Summary of the method: as §1

[2] = compound 200000 nM, 2 technical replicates

SMILES	in vitro ternary complex formation with BCL-2 (in words) [1]	AlphaLISA signal, BCL-2/PROTAC/VCB ([1]; compound 0.191 nM)	AlphaLISA signal, BCL-2/PROTAC/VCB ([1]; compound 0.763 nM)	AlphaLISA signal, BCL-2/PROTAC/VCB ([1]; compound 3.052 nM)	AlphaLISA signal, BCL-2/PROTAC/VCB ([1]; compound 12.207 nM)	AlphaLISA signal, BCL-2/PROTAC/VCB ([1]; compound 48.828 nM)	AlphaLISA signal, BCL-2/PROTAC/VCB ([1]; compound 195.31 nM)	AlphaLISA signal, BCL-2/PROTAC/VCB ([1]; compound 781.25 nM)	AlphaLISA signal, BCL-2/PROTAC/VCB ([1]; compound 3125 nM)	AlphaLISA signal, BCL-2/PROTAC/VCB ([1]; compound 12500 nM)	AlphaLISA signal, BCL-2/PROTAC/VCB ([1]; compound 50000 nM)	AlphaLISA signal, BCL-2/PROTAC/VCB [1, 2]	BCL-2 degradation (in words) (BCL-2)	DC50 (BCL-2)	Dmax (BCL-2)	DC50 (BCL-xL; 293T cells, 16 h)	Dmax (BCL-xL)	Alpha (Alpha Endpoint read, Bcl-2 ternary complex formation) ([1]; Conc. 0.0762939 nM)	Alpha (Alpha Endpoint read, Bcl-2 ternary complex formation) ([1]; Conc. 0.305176 nM)	Alpha (Alpha Endpoint read, Bcl-2 ternary complex formation) ([1]; Conc. 1.2207 nM)	other results
Cc1ncsc1-c1ccc([C@H](C)NC(=O)[C@@H]2C[C@@H](O)CN2C(=O)[C@@H](NC(=O)CCCCCCC(=O)N2CCN(CC3(C)CCC(c4ccc(Cl)cc4)=C(CN4CCN(c5ccc(C(=O)NS(=O)(=O)c6ccc(N[C@H](CCN7CCOCC7)CSc7ccccc7)c(S(=O)(=O)C(F)(F)F)c6)cc5)CC4)C3)CC2)C(C)(C)C)cc1 (some centres unmarked) [PPC8]	stronger ternary complexes	15495 and 15269	16981 and 16694	31764 and 30263	220610 and 232235	1164349 and 1304184	1706795 and 1639825	1791615 and 1848085	524010 and 562226	80335 and 78686	17935 and 18240	8109 and 11043	also degraded BCL-2	0.054 µM	94%	0.0129 µM	94%	–	–	–	–
Cc1ncsc1-c1ccc([C@H](C)NC(=O)[C@@H]2C[C@@H](O)CN2C(=O)[C@@H](NC(=O)CCCCC(=O)N2CCN(CC3(C)CCC(c4ccc(Cl)cc4)=C(CN4CCN(c5ccc(C(=O)NS(=O)(=O)c6ccc(N[C@H](CCN7CCOCC7)CSc7ccccc7)c(S(=O)(=O)C(F)(F)F)c6)cc5)CC4)C3)CC2)C(C)(C)C)cc1 (some centres unmarked) [PPC6]	stronger ternary complexes	16425 and 15906	18031 and 17435	30431 and 31755	272991 and 264284	1222232 and 1254048	1139558 and 1151559	1076543 and 1153682	286448 and 313784	33420 and 31990	13658 and 13269	8289 and 7903	–	–	47%	0.0399 µM	91%	–	–	–	–
Cc1ncsc1-c1ccc([C@H](C)NC(=O)[C@@H]2C[C@@H](O)CN2C(=O)[C@@H](NC(=O)CCCCCCCC(=O)N2CCN(CC3(C)CCC(c4ccc(Cl)cc4)=C(CN4CCN(c5ccc(C(=O)NS(=O)(=O)c6ccc(N[C@H](CCN7CCOCC7)CSc7ccccc7)c(S(=O)(=O)C(F)(F)F)c6)cc5)CC4)C3)CC2)C(C)(C)C)cc1 (some centres unmarked) [PPC9]	much weaker ternary complexes	13571 and 17652	17336 and 18248	22108 and 21304	71357 and 62189	336659 and 328291	357647 and 419151	267337 and 283839	78279 and 78565	15094 and 15494	7032 and 8982	9255 and 9885	also degraded BCL-2	0.316 µM	79%	0.0128 µM	96%	–	–	–	–
Cc1ncsc1-c1ccc([C@H](C)NC(=O)[C@@H]2C[C@@H](O)CN2C(=O)[C@@H](NC(=O)CCCCCC(=O)N2CCN(CC3(C)CCC(c4ccc(Cl)cc4)=C(CN4CCN(c5ccc(C(=O)NS(=O)(=O)c6ccc(N[C@H](CCN7CCOCC7)CSc7ccccc7)c(S(=O)(=O)C(F)(F)F)c6)cc5)CC4)C3)CC2)C(C)(C)C)cc1 (some centres unmarked) [PPC7]	stronger ternary complexes	–	20141 and 15109	29796 and 29041	146984 and 135341	1032585 and 1008497	1592216 and 1719187	1513830 and 1470142	403994 and 403317	43692 and 35758	12115 and 13570	14257 and 11084	also degraded BCL-2	0.18 µM	79%	0.0128 µM	85%	–	–	–	–
CC1(C)CCC(c2ccc(Cl)cc2)=C(CN2CCN(c3ccc(C(=O)NS(=O)(=O)c4ccc(N[C@H](CCN5CCOCC5)CSc5ccccc5)c(S(=O)(=O)C(F)(F)F)c4)cc3)CC2)C1 [ABT263, navitoclax]	–	–	–	–	–	–	–	–	–	–	–	–	–	–	–	–	–	13075 and 14039	25282 and 13828	26631 and 14952	Alpha (Alpha Endpoint read, Bcl-2 ternary complex formation) ([1]; Conc. 4.88281 nM): 23864 and 13192; Alpha (Alpha Endpoint read, Bcl-2 ternary complex formation) ([1]; Conc. 78.125 nM): 25354 and 12957; Alpha (Alpha Endpoint read, Bcl-2 ternary complex formation) ([1]; Conc. 1250 nM): 25045 and 14016; Alpha (Alpha Endpoint read, Bcl-2 ternary complex formation) ([1]; Conc. 20000 nM): 20320 and 11437
Cc1ncsc1-c1ccc([C@H](C)NC(=O)[C@@H]2C[C@@H](O)CN2C(=O)[C@@H](NC(=O)CCCCCCC(=O)N2CCN(C[C@@]3(C)CCC(c4ccc(Cl)cc4)=C(CN4CCN(c5ccc(C(=O)NS(=O)(=O)c6ccc(N[C@H](CCN7CCOCC7)CSc7ccccc7)c(S(=O)(=O)C(F)(F)F)c6)cc5)CC4)C3)CC2)C(C)(C)C)cc1 [753a]	–	–	–	–	–	–	–	–	–	–	–	–	–	–	–	–	–	50534 and 53139	145058 and 154080	205372 and 217088	Alpha (Alpha Endpoint read, Bcl-2 ternary complex formation) ([1]; Conc. 4.88281 nM): 773602 and 780039; Alpha (Alpha Endpoint read, Bcl-2 ternary complex formation) ([1]; Conc. 19.5312 nM): 1990534 and 2015902; Alpha (Alpha Endpoint read, Bcl-2 ternary complex formation) ([1]; Conc. 78.125 nM): 2343633 and 2509831; Alpha (Alpha Endpoint read, Bcl-2 ternary complex formation) ([1]; Conc. 312.5 nM): 1692897 and 1765154; Alpha (Alpha Endpoint read, Bcl-2 ternary complex formation) ([1]; Conc. 1250 nM): 434318 and 434578; Alpha (Alpha Endpoint read, Bcl-2 ternary complex formation) ([1]; Conc. 5000 nM): 40362 and 44856; Alpha (Alpha Endpoint read, Bcl-2 ternary complex formation) ([1]; Conc. 20000 nM): 14264 and 11638; BCL-xL degradation (in words) (BCL-xL; 293T cells, 16 h): could only partially degrade BCL-xL
